According to patent publication US20170022171A1, “2,5-DISUBSTITUTED CYCLOPENTANECARBOXYLIC ACIDS AND THEIR USE” (Bayer Pharma Aktiengesellschaft, priority 2014, published 2017):

How the values were obtained:
Assay type in all cases: biochemical
mouse MMP-12 = target: T1, mouse MMP-12 (Mus musculus, UniProt P34960); test: In vitro mouse MMP-12 inhibition test (standard or high-sensitivity)
T1 construct: purchased R&D Systems 3467-MP
From the text: (§1) The MMP-mediated amidolytic cleavage of a suitable peptide substrate leads to an increase in fluorescent light here too. The signal intensity of the fluorescent light is directly proportional to the enzyme activity. The active concentration of a test compound at which half the enzyme is inhibited (50% signal intensity of the fluorescent light) is reported as the IC50 value.
Recombinant mouse MMP-12 (from R&D Systems, 3467-MP) is autocatalytically activated in accordance with the manufacturer's instructions. 1 μl of the test compound to be analysed (as a solution in DMSO, suitable concentrations, for example, 1 nM to 30 μM) is pipetted into 24 μl of activated enzyme (final concentration, for example, 1 nM) in reaction buffer (50 mM Tris/HCl pH 7.5, 10 mM CaCl2, 150 mM NaCl, 0.05% Brij®-35) in a white 384-hole microtiter plate (MTP). The enzymatic reaction is started by adding the intramolecularly quenched Mca-Lys-Pro-Leu-Gly-Leu-Dpa(Dnp)-Ala-Arg-NH2 substrate (final concentration, for example, 5 μM; R&D Systems, ES-010), so as to result in a total test volume of 50 The course of the MMP-12 reaction is measured by measuring the fluorescence intensity (excitation 320 nm, emission 410 nm) over a suitable period of time (for example over 120 min at a temperature of 32° C.).
In this case, an enzyme concentration ten times lower is used (final concentration, for example, 0.1 nM) in order to achieve an elevated test sensitivity. The incubation period chosen for the test is correspondingly longer (for example 16 hours).

mouse MMP-8 = target: T2, mouse MMP-8 (Mus musculus, UniProt O70138); test: In vitro mouse MMP-8 inhibition test
T2 construct: purchased R&D Systems 2904-MP
From the text: as §1
(§2) Recombinant mouse MMP-8 (from R&D Systems, 2904-MP) is chemically activated in accordance with the manufacturer's instructions using APMA. 1 μl of the test compound to be analysed (as a solution in DMSO, suitable concentrations, for example, 1 nM to 30 μM) is pipetted into 24 μl of activated enzyme (final concentration, for example, 2 nM) in reaction buffer (50 mM Tris/HCl pH 7.5, 10 mM CaCl2, 150 mM NaCl, 0.05% Brij®-35) in a white 384-hole microtiter plate (MTP). The enzymatic reaction is started by adding the intramolecularly quenched Mca-Lys-Pro-Leu-Gly-Leu-Dpa(Dnp)-Ala-Arg-NH2 substrate (final concentration, for example, 5 μM; R&D Systems, ES-010), so as to result in a total test volume of 50 μl. The course of the MMP-8 reaction is measured by measuring the fluorescence intensity (excitation 320 nm, emission 410 nm) over a suitable period of time (for example over 120 min at a temperature of 32° C.).

mouse MMP-7 = target: T3, mouse MMP-7 (Mus musculus, UniProt Q10738); test: In vitro mouse MMP-7 inhibition test
T3 construct: purchased R&D Systems 2967-MP
T3 sequence (Q10738 95-264): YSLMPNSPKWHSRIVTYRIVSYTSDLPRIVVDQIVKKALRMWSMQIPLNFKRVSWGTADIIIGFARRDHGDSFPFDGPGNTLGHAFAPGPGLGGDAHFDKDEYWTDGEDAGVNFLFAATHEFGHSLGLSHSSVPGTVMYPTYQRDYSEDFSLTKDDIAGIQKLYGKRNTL
From the text: as §1
as §2, with “mouse MMP-7” for “mouse MMP-8”, “Systems, 2967-MP)” for “Systems, 2904-MP)”, “example, 0.5” for “example, 2”, “the MMP-7” for “the MMP-8”

mouse MMP-9 = target: T4, mouse MMP-9 (Mus musculus, UniProt P41245); test: In vitro mouse MMP-9 inhibition test
T4 construct: purchased R&D Systems 909-MP
From the text: as §1
Recombinant mouse MMP-9 (from R&D Systems, 909-MP) is chemically activated in accordance with the manufacturer's instructions using APMA. 1 μl of the test compound to be analysed (as a solution in DMSO, suitable concentrations, for example, 1 nM to 30 μM) is pipetted into 24 μl of activated enzyme (final concentration, for example, 0.1 nM) in reaction buffer (50 mM Tris/HCl pH 7.5, 10 mM CaCl2, 150 mM NaCl, 0.05% Brij®-35) in a white 384-hole microtiter plate (MTP). The enzymatic reaction is started by adding the intramolecularly quenched Mca-Pro-Leu-Gly-Leu-Dpa(Dnp)-Ala-Arg-NH2 substrate (final concentration, for example, 5 μM; R&D Systems, ES-001), so as to result in a total test volume of 50 The course of the MMP-9 reaction is measured by measuring the fluorescence intensity (excitation 320 nm, emission 410 nm) over a suitable period of time (for example over 120 min at a temperature of 32° C.).

T2 sequence (O70138 101-465): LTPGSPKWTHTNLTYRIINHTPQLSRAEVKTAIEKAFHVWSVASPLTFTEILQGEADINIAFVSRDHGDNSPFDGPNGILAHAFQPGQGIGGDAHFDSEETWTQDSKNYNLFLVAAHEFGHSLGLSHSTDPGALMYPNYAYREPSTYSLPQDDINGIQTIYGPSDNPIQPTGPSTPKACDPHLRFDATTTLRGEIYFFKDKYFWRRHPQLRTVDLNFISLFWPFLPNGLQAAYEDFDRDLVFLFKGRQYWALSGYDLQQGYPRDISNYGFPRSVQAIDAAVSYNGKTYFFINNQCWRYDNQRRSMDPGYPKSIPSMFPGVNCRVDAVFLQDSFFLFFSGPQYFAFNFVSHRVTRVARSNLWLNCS
T4 sequence (P41245 108-730): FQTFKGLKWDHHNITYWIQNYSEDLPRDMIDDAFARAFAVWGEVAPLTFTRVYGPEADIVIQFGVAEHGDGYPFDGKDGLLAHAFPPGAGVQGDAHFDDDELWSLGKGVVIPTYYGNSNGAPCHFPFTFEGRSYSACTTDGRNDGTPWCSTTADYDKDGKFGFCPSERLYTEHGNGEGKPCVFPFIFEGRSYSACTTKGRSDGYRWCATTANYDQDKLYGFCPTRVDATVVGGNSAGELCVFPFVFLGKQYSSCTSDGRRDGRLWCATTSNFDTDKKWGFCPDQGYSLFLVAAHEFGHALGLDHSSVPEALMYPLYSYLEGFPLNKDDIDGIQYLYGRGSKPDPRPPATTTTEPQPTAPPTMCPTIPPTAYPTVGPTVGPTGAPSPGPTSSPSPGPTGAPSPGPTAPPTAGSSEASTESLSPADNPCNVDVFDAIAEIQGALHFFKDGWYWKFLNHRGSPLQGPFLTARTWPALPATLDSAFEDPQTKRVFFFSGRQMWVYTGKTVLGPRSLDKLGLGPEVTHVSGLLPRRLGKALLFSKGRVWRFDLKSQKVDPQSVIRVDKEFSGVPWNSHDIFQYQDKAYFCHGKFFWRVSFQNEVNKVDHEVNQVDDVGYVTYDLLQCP
T1 sequence (P34960 110-473): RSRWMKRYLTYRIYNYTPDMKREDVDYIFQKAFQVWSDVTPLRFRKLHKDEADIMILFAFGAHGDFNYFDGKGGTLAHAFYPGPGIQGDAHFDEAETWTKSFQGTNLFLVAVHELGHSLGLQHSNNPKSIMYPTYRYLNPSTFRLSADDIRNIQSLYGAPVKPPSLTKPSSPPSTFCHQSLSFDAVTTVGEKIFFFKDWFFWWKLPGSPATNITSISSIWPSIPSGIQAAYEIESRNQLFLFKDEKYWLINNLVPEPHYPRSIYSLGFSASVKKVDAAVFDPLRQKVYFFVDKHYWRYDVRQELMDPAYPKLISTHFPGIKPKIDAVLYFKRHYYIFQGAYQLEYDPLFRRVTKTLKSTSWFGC

Compound	IC50 (mouse MMP-12) [nM]	IC50 (mouse MMP-8) [nM]	IC50 (mouse MMP-7) [nM]	IC50 (mouse MMP-9) [nM]
CCCCCOc1ccc(C(=O)[C@H]2CC[C@@H](Cn3nnc4ccc(C)cc4c3=O)[C@@H]2C(=O)O)cc1 (racemic) [Example 123, (+/−)-(1RS,2SR,5RS)-2-[(6-Methyl-4-oxo-1,2,3-benzotriazin-3(4H)-yl)methyl]-5-[4-(pentyloxy)benzoyl]cyclopentanecarboxylic acid]	4.9	91	100	770
O=C(O)[C@@H]1[C@@H](Cn2nnc3ccc(C(F)(F)F)cc3c2=O)CC[C@H]1C(=O)c1ccc(OCC2CCCCC2)cc1 (single isomer, unassigned) [Example 41, (+)-(1RS,2RS,5SR)-2-[4-(Cyclohexylmethoxy)benzoyl]-5-{[4-oxo-6-(trifluoromethyl)-1,2,3-benzotriazin-3(4H)-yl]methyl}cyclopentanecarboxylic acid]	0.71	16	27	220
O=C(O)[C@@H]1[C@@H](Cn2nnc3ccc(C(F)(F)F)cc3c2=O)CC[C@H]1C(=O)c1ccc(OCCC2CCCCC2)cc1 (single isomer, unassigned) [Example 52, (+)-(1RS,2RS,5SR)-2-[4-(2-Cyclohexylethoxy)benzoyl]-5-{[4-oxo-6-(trifluoromethyl)-1,2,3-benzotriazin-3(4H)-yl]methyl}cyclopentanecarboxylic acid]	10	160	170	2800
O=C(O)[C@@H]1[C@@H](Cn2nnc3ccc(C(F)(F)F)cc3c2=O)CC[C@H]1C(=O)c1ccc(SCc2ccccc2)cc1 (single isomer, unassigned) [Example 75, (+)-(1RS,2RS,5SR)-2-[4-(Benzylsulphanyl)benzoyl]-5-{[4-oxo-6-(trifluoromethyl)-1,2,3-benzotriazin-3(4H)-yl]methyl}cyclopentanecarboxylic acid]	2.3	410	120	2700
O=C(O)[C@@H]1[C@@H](Cn2nnc3ccc(C(F)(F)F)cc3c2=O)CC[C@H]1C(=O)c1ccc(SCc2cccc(Cl)c2)cc1 (single isomer, unassigned) [Example 77, (+)-(1RS,2RS,5SR)-2-{4-[(3-Chlorobenzyl)sulphanyl]benzoyl}-5-{[4-oxo-6-(trifluoromethyl)-1,2,3-benzotriazin-3(4H)-yl]methyl}cyclopentanecarboxylic acid]	2	130	54	23000
O=C(O)[C@@H]1[C@@H](Cn2nnc3ccc(C(F)(F)F)cc3c2=O)CC[C@H]1C(=O)c1ccc(SCc2ccc(Cl)c(Cl)c2)cc1 (single isomer, unassigned) [Example 80, (+)-(1RS,2RS,5SR)-2-{4-[(3,4-Dichlorobenzyl)sulphanyl]benzoyl}-5-{[4-oxo-6-(trifluoromethyl)-1,2,3-benzotriazin-3(4H)-yl]methyl}cyclopentanecarboxylic acid]	4.3	130	130	> 40000
Cc1cccc(COc2ccc(C(=O)[C@@H]3CC[C@H](Cn4nnc5ccc(C)cc5c4=O)[C@H]3C(=O)O)cc2)c1 (single isomer, unassigned) [Example 98, (+)-(1RS,2RS,5SR)-2-{4-[(3-Methylbenzyl)oxy]benzoyl}-5-[(6-methyl-4-oxo-1,2,3-benzotriazin-3(4H)-yl)methyl]cyclopentanecarboxylic acid]	1.2	280	29	460

More lines, now with the values ahead:

IC50 (mouse MMP-12) [nM]	IC50 (mouse MMP-8) [nM]	IC50 (mouse MMP-7) [nM]	IC50 (mouse MMP-9) [nM]	Compound
2.3	270	28	550	Cc1ccc2nnn(C[C@@H]3CC[C@H](C(=O)c4ccc(OCc5cccc(Cl)c5)cc4)[C@H]3C(=O)O)c(=O)c2c1 (racemic) [Example 103, (+/−)-(1RS,2RS,5SR)-2-{4-[(3-Chlorobenzyl)oxy]benzoyl}-5-[(6-methyl-4-oxo-1,2,3-benzotriazin-3(4H)-yl)methyl]cyclopentanecarboxylic acid]
3	450	250	910	Cc1ccc2nnn(C[C@@H]3CC[C@H](C(=O)c4ccc(OCc5cccc(OC(F)(F)F)c5)cc4)[C@H]3C(=O)O)c(=O)c2c1 (racemic) [Example 109, (+/−)-(1RS,2SR,5RS)-2-[(6-Methyl-4-oxo-1,2,3-benzotriazin-3(4H)-yl)methyl]-5-(4-{[3-(trifluoromethoxy)benzyl]oxy}benzoyl)cyclopentanecarboxylic acid]
6.5	300	69	1700	O=C(O)[C@@H]1[C@@H](Cn2nnc3ccc(C(F)(F)F)cc3c2=O)CC[C@H]1C(=O)c1ccc(OCc2cccc(Cl)c2)cc1 (single isomer, unassigned) [Example 23, (+)-(1RS,2RS,5SR)-2-{4-[(3-Chlorobenzyl)oxy]benzoyl}-5-{[4-oxo-6-(trifluoromethyl)-1,2,3-benzotriazin-3(4H)-yl]methyl}cyclopentanecarboxylic acid]
0.42	16	18	37	Cc1ccc2nnn(C[C@H]3CC[C@@H](C(=O)c4ccc(OCc5ccccc5)cc4)[C@@H]3C(=O)O)c(=O)c2c1 (single isomer, unassigned) [Example 92, (+)-(1RS,2RS,5SR)-2-[4-(Benzyloxy)benzoyl]-5-[(6-methyl-4-oxo-1,2,3-benzotriazin-3(4H)-yl)methyl]cyclopentanecarboxylic acid]
1.1	120	76	400	Cc1ccc2nnn(C[C@H]3CC[C@@H](C(=O)c4ccc(OCc5cccc(C(F)(F)F)c5)cc4)[C@@H]3C(=O)O)c(=O)c2c1 (single isomer, unassigned) [Example 101, (+)-(1RS,2SR,5RS)-2-[(6-Methyl-4-oxo-1,2,3-benzotriazin-3(4H)-yl)methyl]-5-(4-{[3-(trifluoromethyl)benzyl]oxy}benzoyl)cyclopentanecarboxylic acid]
